Assay results: ChEMBL document CHEMBL5120859, “Optimization of 4-arylthiophene-3-carboxylic acid derivatives as inhibitors of ANO1: Lead optimization studies toward their analgesic efficacy for inflammatory pain” (Eur J Med Chem, 2022)

What was measured:
[1] = target: Voltage-dependent N-type calcium channel subunit alpha-1B (Homo sapiens) (UniProt Q00975); test: Inhibition of Cav2.2 (unknown origin) at a holding potential +10 mV at 30 uM by whole cell patch clamp electrophysiology relative to control
Chain of Voltage-dependent N-type calcium channel subunit alpha-1B (Homo sapiens) (Q00975 whole entry, looked up): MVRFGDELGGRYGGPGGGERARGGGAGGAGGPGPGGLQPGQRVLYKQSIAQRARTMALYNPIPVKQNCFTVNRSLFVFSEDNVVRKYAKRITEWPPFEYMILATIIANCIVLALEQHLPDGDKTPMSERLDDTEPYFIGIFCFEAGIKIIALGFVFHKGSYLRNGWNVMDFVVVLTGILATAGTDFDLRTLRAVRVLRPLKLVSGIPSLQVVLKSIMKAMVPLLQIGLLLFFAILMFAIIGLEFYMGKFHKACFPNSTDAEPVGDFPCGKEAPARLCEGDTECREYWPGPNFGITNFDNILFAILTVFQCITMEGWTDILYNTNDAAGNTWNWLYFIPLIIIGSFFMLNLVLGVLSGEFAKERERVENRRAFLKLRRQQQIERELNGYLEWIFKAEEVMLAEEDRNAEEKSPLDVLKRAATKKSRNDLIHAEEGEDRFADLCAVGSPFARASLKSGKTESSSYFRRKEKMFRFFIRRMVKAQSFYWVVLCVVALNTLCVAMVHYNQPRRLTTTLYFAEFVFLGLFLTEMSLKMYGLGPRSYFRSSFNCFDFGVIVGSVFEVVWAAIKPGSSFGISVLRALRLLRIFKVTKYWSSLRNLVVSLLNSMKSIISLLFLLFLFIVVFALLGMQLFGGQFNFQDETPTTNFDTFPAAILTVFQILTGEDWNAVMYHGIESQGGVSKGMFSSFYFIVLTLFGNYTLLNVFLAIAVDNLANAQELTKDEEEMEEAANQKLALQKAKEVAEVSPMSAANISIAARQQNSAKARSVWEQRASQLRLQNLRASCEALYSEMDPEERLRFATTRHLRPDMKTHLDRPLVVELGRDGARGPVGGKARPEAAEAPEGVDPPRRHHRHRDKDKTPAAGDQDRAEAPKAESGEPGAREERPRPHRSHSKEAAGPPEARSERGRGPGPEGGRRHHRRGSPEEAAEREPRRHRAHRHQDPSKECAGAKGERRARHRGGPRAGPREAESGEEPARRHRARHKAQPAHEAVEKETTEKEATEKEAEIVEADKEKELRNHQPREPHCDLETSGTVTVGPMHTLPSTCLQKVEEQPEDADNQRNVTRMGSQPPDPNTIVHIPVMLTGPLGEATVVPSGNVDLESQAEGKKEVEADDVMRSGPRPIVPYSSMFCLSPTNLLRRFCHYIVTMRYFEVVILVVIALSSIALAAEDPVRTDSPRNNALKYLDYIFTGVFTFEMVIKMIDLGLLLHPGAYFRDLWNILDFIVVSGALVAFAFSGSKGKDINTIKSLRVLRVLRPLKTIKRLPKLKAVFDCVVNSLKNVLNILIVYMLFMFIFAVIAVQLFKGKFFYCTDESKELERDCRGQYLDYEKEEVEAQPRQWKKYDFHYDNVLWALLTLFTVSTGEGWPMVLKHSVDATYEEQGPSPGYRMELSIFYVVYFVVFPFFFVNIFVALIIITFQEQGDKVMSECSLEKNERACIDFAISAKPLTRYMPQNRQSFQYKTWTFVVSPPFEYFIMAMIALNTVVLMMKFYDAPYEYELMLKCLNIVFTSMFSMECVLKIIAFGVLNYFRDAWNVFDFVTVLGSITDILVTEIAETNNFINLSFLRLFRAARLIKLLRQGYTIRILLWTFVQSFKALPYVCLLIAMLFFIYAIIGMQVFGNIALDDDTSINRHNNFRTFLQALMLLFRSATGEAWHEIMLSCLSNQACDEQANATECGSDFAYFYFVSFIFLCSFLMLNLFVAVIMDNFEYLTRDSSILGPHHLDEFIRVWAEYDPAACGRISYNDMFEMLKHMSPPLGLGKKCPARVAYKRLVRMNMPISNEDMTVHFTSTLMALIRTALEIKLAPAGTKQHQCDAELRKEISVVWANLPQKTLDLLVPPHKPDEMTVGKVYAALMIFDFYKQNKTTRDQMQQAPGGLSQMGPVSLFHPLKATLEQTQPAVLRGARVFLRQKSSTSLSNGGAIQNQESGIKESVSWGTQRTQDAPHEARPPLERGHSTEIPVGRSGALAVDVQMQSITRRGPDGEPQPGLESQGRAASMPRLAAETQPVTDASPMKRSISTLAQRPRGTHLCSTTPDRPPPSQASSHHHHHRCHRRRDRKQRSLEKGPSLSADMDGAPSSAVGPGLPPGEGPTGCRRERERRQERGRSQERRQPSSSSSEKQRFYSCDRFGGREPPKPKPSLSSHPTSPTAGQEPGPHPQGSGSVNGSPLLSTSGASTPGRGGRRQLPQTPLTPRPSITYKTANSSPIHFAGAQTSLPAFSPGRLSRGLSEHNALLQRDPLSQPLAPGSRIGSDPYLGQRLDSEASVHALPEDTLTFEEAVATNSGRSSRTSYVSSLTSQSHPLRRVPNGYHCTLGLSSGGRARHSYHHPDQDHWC

[2] = AUC (0 to t) in C57BL/6 mouse at 40 mg/kg,IG measured upto 24 hrs by HPLC-MS/MS analysis; format: ADME, organism-based; design: dose 40 mg/kg, time < 24 hrs, route ig; conditions: in vivo, po
[3] = Tmax in C57BL/6 mouse at 80 mg/kg,IG measured upto 24 hrs by HPLC-MS/MS analysis; format: ADME, organism-based; conditions: in vivo, po
[4] = target: T1, Anoctamin-1 (Homo sapiens, UniProt Q5XXA6); test: Inhibition of YFP tagged ANO1 (unknown origin) expressed in FRT cells incubated for 24 hrs by fluorescence plate reader assay; format: cell-based
T1 sequence (Q5XXA6 whole entry): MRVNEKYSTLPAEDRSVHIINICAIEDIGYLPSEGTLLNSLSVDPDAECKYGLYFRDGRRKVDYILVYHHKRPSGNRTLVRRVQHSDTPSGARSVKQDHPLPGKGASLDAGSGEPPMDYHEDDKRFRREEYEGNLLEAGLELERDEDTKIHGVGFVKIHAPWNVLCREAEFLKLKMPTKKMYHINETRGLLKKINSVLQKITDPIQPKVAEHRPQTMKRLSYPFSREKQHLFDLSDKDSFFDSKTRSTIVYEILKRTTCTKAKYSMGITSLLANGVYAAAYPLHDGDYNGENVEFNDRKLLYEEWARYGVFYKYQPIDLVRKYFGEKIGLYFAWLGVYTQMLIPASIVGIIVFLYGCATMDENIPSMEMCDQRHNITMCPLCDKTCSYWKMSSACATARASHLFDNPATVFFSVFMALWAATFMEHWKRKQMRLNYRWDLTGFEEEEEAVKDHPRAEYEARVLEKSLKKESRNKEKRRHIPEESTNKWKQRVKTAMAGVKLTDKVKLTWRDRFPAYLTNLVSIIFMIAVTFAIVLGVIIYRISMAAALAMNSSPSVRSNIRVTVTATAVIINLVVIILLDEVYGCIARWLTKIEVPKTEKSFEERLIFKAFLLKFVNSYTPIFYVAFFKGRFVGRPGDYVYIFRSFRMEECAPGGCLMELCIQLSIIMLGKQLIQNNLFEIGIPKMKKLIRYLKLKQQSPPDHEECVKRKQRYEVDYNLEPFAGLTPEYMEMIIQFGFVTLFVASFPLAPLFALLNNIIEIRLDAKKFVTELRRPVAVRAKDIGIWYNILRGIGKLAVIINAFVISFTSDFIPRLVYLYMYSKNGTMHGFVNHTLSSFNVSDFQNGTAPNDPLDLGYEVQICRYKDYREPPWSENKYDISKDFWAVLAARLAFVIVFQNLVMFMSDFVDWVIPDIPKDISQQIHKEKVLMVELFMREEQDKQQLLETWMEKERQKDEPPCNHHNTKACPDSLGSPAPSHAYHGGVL

[5] = Plasma concentration in C57BL/6 mouse at 40 mg/kg,IG measured after 24 hrs by HPLC analysis; format: ADME, organism-based; conditions: po
[6] = Cmax in C57BL/6 mouse at 40 mg/kg,iv measured upto 24 hrs by HPLC-MS/MS analysis; format: ADME, organism-based; design: time < 24 hrs, dose 40 mg/kg, route iv; conditions: in vivo
[7] = Brain concentration in C57BL/6 mouse at 40 mg/kg,IG measured after 0.25 hrs by HPLC analysis; format: ADME, organism-based; conditions: po, read-out: Ct
[8] = target: Transient receptor potential cation channel subfamily V member 1 (Homo sapiens) (UniProt Q8NER1); test: Inhibition of TRPV1 (unknown origin) at a holding potential +100 mV at 30 uM by whole cell patch clamp electrophysiology relative to control
Chain of Transient receptor potential cation channel subfamily V member 1 (Homo sapiens) (Q8NER1 whole entry): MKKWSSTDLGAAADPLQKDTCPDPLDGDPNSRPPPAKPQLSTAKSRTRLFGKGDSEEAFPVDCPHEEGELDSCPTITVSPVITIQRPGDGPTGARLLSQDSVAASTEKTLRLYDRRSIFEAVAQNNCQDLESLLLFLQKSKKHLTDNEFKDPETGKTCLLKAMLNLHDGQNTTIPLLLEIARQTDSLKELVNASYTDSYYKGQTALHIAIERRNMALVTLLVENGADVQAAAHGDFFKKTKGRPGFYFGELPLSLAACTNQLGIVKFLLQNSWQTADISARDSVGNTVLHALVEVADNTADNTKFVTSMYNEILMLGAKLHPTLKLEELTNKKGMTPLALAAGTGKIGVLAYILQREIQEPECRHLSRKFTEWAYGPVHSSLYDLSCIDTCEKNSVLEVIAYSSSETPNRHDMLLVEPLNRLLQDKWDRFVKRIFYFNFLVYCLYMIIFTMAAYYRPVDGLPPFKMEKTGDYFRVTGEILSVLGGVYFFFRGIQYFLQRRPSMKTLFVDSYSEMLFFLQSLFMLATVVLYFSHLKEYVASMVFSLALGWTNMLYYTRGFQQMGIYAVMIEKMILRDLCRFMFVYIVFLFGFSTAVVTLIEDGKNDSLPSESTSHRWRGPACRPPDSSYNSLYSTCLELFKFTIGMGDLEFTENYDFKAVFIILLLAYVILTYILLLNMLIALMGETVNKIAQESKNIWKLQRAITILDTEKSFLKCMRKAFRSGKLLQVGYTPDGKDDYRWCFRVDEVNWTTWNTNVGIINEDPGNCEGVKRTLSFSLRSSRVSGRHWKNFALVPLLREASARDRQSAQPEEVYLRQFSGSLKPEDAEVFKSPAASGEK

[9] = target: Voltage-gated potassium channel, KQT; KCNQ2(Kv7.2)/KCNQ3(Kv7.3) (Homo sapiens) (UniProt O43526+O43525); test: Inhibition of KCNQ2/3 (unknown origin) at a holding potential -40 mV at 30 uM by whole cell patch clamp electrophysiology relative to control
[10] = Plasma concentration in C57BL/6 mouse at 40 mg/kg,IG measured after 6 hrs by HPLC analysis; format: ADME, organism-based; conditions: po
[11] = Cmax in C57BL/6 mouse at 40 mg/kg,IG measured upto 24 hrs by HPLC-MS/MS analysis; format: ADME, organism-based; design: dose 40 mg/kg, time < 24 hrs, route ig; conditions: in vivo, po
[12] = target: T2, Anoctamin-2 (Homo sapiens) (UniProt Q9NQ90); test: Inhibition of human ANO2 expressed in HEK293 cells at 30 uM incubated for 5 mins by whole cell patch clamp electrophysiology relative to control; format: cell-based
T2 sequence (whole entry): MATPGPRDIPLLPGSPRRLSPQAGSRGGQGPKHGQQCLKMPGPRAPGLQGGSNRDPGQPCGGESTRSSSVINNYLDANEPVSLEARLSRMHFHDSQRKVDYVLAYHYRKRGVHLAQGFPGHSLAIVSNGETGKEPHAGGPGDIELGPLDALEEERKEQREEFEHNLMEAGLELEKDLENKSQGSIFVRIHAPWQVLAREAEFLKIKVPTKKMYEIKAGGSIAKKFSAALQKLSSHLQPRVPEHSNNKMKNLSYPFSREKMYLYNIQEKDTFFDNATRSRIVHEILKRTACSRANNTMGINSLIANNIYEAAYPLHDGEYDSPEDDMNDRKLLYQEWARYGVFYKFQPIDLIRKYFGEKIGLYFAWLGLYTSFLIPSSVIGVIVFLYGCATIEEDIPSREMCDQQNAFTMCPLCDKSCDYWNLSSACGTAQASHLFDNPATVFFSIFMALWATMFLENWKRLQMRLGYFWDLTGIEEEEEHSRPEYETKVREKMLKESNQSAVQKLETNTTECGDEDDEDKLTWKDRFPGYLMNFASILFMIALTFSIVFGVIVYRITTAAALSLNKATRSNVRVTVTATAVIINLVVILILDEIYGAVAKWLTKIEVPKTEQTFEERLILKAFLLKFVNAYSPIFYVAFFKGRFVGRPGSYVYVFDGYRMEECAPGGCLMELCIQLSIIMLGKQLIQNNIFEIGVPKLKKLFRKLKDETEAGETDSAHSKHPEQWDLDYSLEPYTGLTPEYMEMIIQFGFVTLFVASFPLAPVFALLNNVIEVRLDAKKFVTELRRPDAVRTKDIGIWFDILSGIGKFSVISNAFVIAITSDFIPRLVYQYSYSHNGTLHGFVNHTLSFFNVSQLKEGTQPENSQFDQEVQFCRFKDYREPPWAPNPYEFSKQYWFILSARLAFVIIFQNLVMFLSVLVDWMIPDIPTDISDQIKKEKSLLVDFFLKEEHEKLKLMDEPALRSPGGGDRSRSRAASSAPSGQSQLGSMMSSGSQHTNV

[13] = Brain concentration in C57BL/6 mouse at 40 mg/kg,IG measured after 6 hrs by HPLC analysis; format: ADME, organism-based; conditions: po, read-out: Ct
[14] = Bioavailability in C57BL/6 mouse at 40 mg/kg,IG measured upto 24 hrs by HPLC-MS/MS analysis; format: ADME, organism-based; conditions: in vivo, po
[15] = MRT (0 to t) in C57BL/6 mouse at 40 mg/kg,iv measured upto 24 hrs by HPLC-MS/MS analysis; format: ADME, organism-based; conditions: in vivo

O=C(Nc1scc(-c2ccc(Cl)cc2)c1C(=O)O)c1cc(F)ccc1F
inhibition [1]: 32% | AUC(0-t) at 24 h [2]: 265 µg·h/mL | Tmax [3]: 0.17 h | IC50 [4]: 0.024 µM | concentration at 24 h [5]: 1.67 µg/mL | Cmax [6]: 183 µg/mL | concentration at 0.25 h [7]: 1440 ng/g | inhibition [8]: 17% | inhibition [9]: 21.4% | concentration at 6 h [10]: 24.3 µg/mL | Cmax [11]: 97.7 µg/mL | inhibition [12]: 72.8% | concentration at 6 h [13]: 337 ng/g | bioavailability [14]: 75.7% | MRT last at 24 h [15]: 4.9 h
